Experimental data as given in patent US10383861B2, “3-(1H-pyrrolo[2,3-C]pyridin-2-yl)-1H-pyrazolo[3,4-C]pyridines and therapeutic uses thereof” (Samumed, LLC, priority 2015, dated 2019).

Legend:
Format in all cases: cell-based
[1] = tested on: primary human fibroblasts derived from IPF patients (LL29 cells); assay: Inhibition of the fibrotic process: αSMA staining in TGF-β1 treated LL29 fibroblasts; settings: Fibroblast; for EC50: 96 h, LL29 cells, TGF-β1 20 ng/mL, 4 days, % αSMA positive cells; for inhibition at 10 µM: read-out: percent inhibition at 10 μM
Experimental: Representative compounds were screened using primary human fibroblasts (derived from IPF patients) treated with TGF-β1 to determine their ability to inhibit the fibrotic process.
LL29 cells are plated at 1,500 cells/well in 80 μL/well F12 medium supplemented with 1% Fetal Bovine Serum. […] Wells treated with TGF-β1 and containing DMSO were used as controls. […] Following incubation for 4 days, SYTOX green nucleic acid stain (Life Technologies [Thermo Fisher Scientific]) was added to the wells at a final concentration of 1 μM and incubated at room temperature for 30 min.

SW480 colon cancer cells = assay: Cell viability assay (CellTiter-Blue) in SW480 colon cancer cells; settings: Homo sapiens; for EC50: 96 h, SW480 cell viability, four days, CellTiter-Blue; for inhibition at 10 µM: SW480, read-out: percent inhibition at 10 μM
Experimental: Representative compounds were screened using the following assay procedure to assess the effect on cell viability as described below.
Approximately 2×10^3 SW480 colon cancer cells were seeded into each well and allowed to incubate in the presence or absence of compound for four days at 37° C./5% CO2. Eight replicates of DMSO-treated cells served as controls and cells treated with compound were performed in duplicate.
After incubation, 20 μL of CellTiter-Blue (Promega) was added to each well allowed to incubate for approximately 3 hours. This reagent was a buffered solution which contains resazurin, metabolically active cells were able to reduce rezarurin (blue) into resorufin (pink) which was highly fluorescent. This measured fluorescence was used as a readout for cell viability.

IL-6 = IL-6 inhibition in LPS-stimulated THP-1 cells (HTRF); settings: Homo sapiens; for EC50: THP-1 cells, LPS 500 ng/mL, 22 hours, IL6 HTRF; for inhibition at 10 µM: THP-1, read-out: percent inhibition at 10 μM
Experimental: THP-1 cells were cultured in basal media with 1% FBS for 24 hours before the start of the assay. […] THP-1 cells were plated at 5000 cells/well in the 384-well plates and incubated at 37° C. for 2 h. 500 ng/mL of LPS was added after 2 hours and cells were incubated for another 22 hours at 37° C. Plates were spun in a centrifuge for 1 minute at […] and a mixture of anti-IL6 XL665, and anti-IL6 Cryptate diluted in reconstitution buffer (Cisbio Inc.) was added to each well. Following incubation for 3 hrs at room temperature, Homogeneous Time-Resolved Fluorescence (HTRF) was measured using the Envision (Perkin Elmer) at 665 nm and […]. The ratio of fluorescence at 665 nm to 620 nm was used as a readout for IL6 quantification. All samples were processed in duplicate. Readings were normalized to DMSO treated cells and normalized activities were utilized for EC50 calculations using the dose-response log (inhibitor) vs. response -variable slope (four parameters) nonlinear regression feature available in GraphPad Prism 5.0 (or Dotmatics).

Wnt activity = Wnt activity screening assay, Sp5-Luc reporter gene in SW480 cells; settings: Homo sapiens; for EC50: Sp5-Luc reporter, SW480 cells, overnight incubation; for inhibition at 10 µM: SW480, read-out: percent inhibition at 10 μM
Text: The screening assay for Wnt activity is described as follows. Reporter cell lines can be generated by stably transducing cancer cell lines (e.g., colon cancer) or primary cells (e.g., IEC-6 intestinal cells) with a lentiviral construct that includes a Wnt-responsive promoter driving expression of the firefly luciferase gene.
SW480 colon carcinoma cells were transduced with a lentiviral vector expressing luciferase with a human Sp5 promoter consisting of a sequence of eight TCF/LEF binding sites. SW480 cells stably expressing the Sp5-Luc reporter gene and a hygromycin resistance gene were selected by treatment with 150 μg/mL of hygromycin for 7 days. These stably transduced SW480 cells were expanded in cell culture and used for all further screening activities. […] For Sp5-Luc reporter gene assays, the cells were plated at 4,000 cells/well in 384-well plates with medium containing 1% fetal bovine serum and incubated overnight at 37° C. and 5% CO2. Following incubation, 20 μl of BrightGlo luminescence reagent (Promega) was added to each well of the 384-well assay plates. The plates were placed on an orbital shaker for 2 min and then luminescence was quantified using the Envision (Perkin Elmer) plate reader. Readings were normalized to DMSO only treated cells, and normalized activities were utilized for EC50 calculations using the dose-response log (inhibitor) vs. response -variable slope (four parameters) nonlinear regression feature available in GraphPad Prism 5.0 (or Dotmatics).

[2] = tested on: primary human mesenchymal stem cells (hMSCs); assay: Induction of chondrogenesis in hMSCs (nodule count, Rhodamine B/Nile Red); settings: 6 days; for Emax: relative to TGF-β3 (10 ng/mL) positive control, read-out: Max. Activity as % TGF-β3 activity; for EC50: concentration required to induce 50% levels of chondrogenesis vs TGF-β3, read-out: Conc (nM) of 50% TGF-β3 activity
Text: Representative compounds were screened using primary human mesenchymal stem cells (hMSCs) to determine their ability to induce chondrogenesis (process by which cartilage is developed).
Primary human mesenchymal stem cells (hMSCs) were purchased from Lonza (Walkersville, Md.) and expanded in Mesenchymal Stem Cell Growth Media (Lonza). Cells between passage 3 and 6 were used for the experiments.
To image chondrogenic nodules, the cells were fixed using 4% formaldehyde (Electron Microscopy Sciences), and stained with 2 μg/mL Rhodamine B (Sigma-Aldrich) and 20 μM Nile Red (Sigma-Aldrich) [Johnson K., et.al, A Stem Cell-Based Approach to Cartilage Repair, Science, (2012). […] Number of nodules in each well was normalized to the average of 3 DMSO treated wells on the same plate using Excel (Microsoft Inc.). The normalized averages (fold change over DMSO) of 3 replicate wells for each compound concentration were calculated. Due to solubility limitations of some of the compounds, curve fitting was incomplete leading to inaccurate EC50 determinations.
Using TGF-β3 as a positive control, the concentration of representative compounds required to induce 50% levels of chondrogenesis is reported. In addition, the maximum activity of each compound and the respective dose that each compound reached maximum chondrogenesis activity is reported.

| Compound | EC50 (SW480 colon cancer cells) | EC50 (IL-6) | EC50 (Wnt activity) | EC50 [2] | EC50 [1] | Emax [2] | inhibition at 10 µM [1] | inhibition at 10 µM (SW480 colon cancer cells) | inhibition at 10 µM (IL-6) | inhibition at 10 µM (Wnt activity) |
| --- | --- | --- | --- | --- | --- | --- | --- | --- | --- | --- |
| CS(=O)(=O)NCc1cc(F)cc(-c2cncc3[nH]c(-c4n[nH]c5cnc(-c6cncc(NC(=O)C7CCC7)c6)cc45)cc23)c1 [Compound 497, N-(5-(3-(4-(3-Fluoro-5-(methylsulfonamidomethyl)phenyl)-1H-pyrrolo[2,3-c]pyridin-2-yl)-1H-pyrazolo[3,4-c]pyridin-5-yl)pyridin-3-yl)cyclobutanecarboxamide] | > 10 µM | > 10 µM | > 10 µM |  | > 10 µM | 15% | 27.8% | 14.1% | 0% | 6.4% |
| CC(C)(C)C(=O)Nc1cncc(-c2cc3c(-c4cc5c(-c6ccncc6)cncc5[nH]4)n[nH]c3cn2)c1 [Compound 120, N-(5-(3-(4-(Pyridin-4-yl)-1H-pyrrolo[2,3-c]pyridin-2-yl)-1H-pyrazolo[3,4-c]pyridin-5-yl)pyridin-3-yl)pivalamide] | > 10 µM | > 10 µM | > 10 µM |  | 5.35 µM | 30% |  | 29% | 16.4% | 22% |
| Fc1cccc(-c2cncc3[nH]c(-c4n[nH]c5cnc(-c6cncnc6)cc45)cc23)c1 [Compound 27, 3-(4-(3-Fluorophenyl)-1H-pyrrolo[2,3-c]pyridin-2-yl)-5-(pyrimidin-5-yl)-1H-pyrazolo[3,4-c]pyridine] | 1.1 µM | 3.06 µM | 0.584 µM | 10 nM | 0.432 µM | 56% |  |  |  |  |
| Fc1cccc(-c2cncc3[nH]c(-c4n[nH]c5cnc(-c6cncc(CN7CCCC7)c6)cc45)cc23)c1 [Compound 14, 3-(4-(3-Fluorophenyl)-1H-pyrrolo[2,3-c]pyridin-2-yl)-5-(5-(pyrrolidin-1-ylmethyl)pyridin-3-yl)-1H-pyrazolo[3,4-c]pyridine] | 5.69 µM | > 10 µM | 3.97 µM | 100 nM | 3.54 µM | 81% |  |  | 48.2% |  |
| CN(C)Cc1cncc(-c2cc3c(-c4cc5c(-c6ccncc6)cncc5[nH]4)n[nH]c3cn2)c1 [Compound 125, N,N-Dimethyl-1-(5-(3-(4-(pyridin-4-yl)-1H-pyrrolo[2,3-c]pyridin-2-yl)-1H-pyrazolo[3,4-c]pyridin-5-yl)pyridin-3-yl)methanamine] | > 10 µM | > 10 µM | > 10 µM | 30 nM | > 10 µM | 52% | 2.9% | 5.3% | 0% | 18.7% |
| Fc1ccc(-c2cncc3[nH]c(-c4n[nH]c5cnc(-c6cncnc6)cc45)cc23)cc1 [Compound 55, 3-(4-(4-Fluorophenyl)-1H-pyrrolo[2,3-c]pyridin-2-yl)-5-(pyrimidin-5-yl)-1H-pyrazolo[3,4-c]pyridine] | 0.264 µM | 0.975 µM | 0.555 µM | 900 nM | > 10 µM | 81% | 56.4% |  |  |  |

Now from value to molecule, other results behind:

| EC50 (SW480 colon cancer cells) | EC50 (IL-6) | EC50 (Wnt activity) | EC50 [2] | Compound | EC50 [1] | Emax [2] | inhibition at 10 µM [1] | inhibition at 10 µM (SW480 colon cancer cells) | inhibition at 10 µM (IL-6) | inhibition at 10 µM (Wnt activity) |
| --- | --- | --- | --- | --- | --- | --- | --- | --- | --- | --- |
| 4.34 µM | 8.26 µM | 1.81 µM |  | CC(C)C(=O)Nc1cncc(-c2cc3c(-c4cc5c(-c6cccc(F)c6)cncc5[nH]4)n[nH]c3cn2)c1 [Compound 9, N-(5-(3-(4-(3-Fluorophenyl)-1H-pyrrolo[2,3-c]pyridin-2-yl)-1H-pyrazolo[3,4-c]pyridin-5-yl)pyridin-3-yl)isobutyramide] | 1.79 µM | 42% |  |  |  |  |
| > 10 µM | > 10 µM | > 10 µM |  | CC(C)CC(=O)Nc1cncc(-c2cc3c(-c4cc5c(-c6cc(F)cc(CNS(C)(=O)=O)c6)cncc5[nH]4)n[nH]c3cn2)c1 [Compound 478, N-(5-(3-(4-(3-Fluoro-5-(methylsulfonamidomethyl)phenyl)-1H-pyrrolo[2,3-c]pyridin-2-yl)-1H-pyrazolo[3,4-c]pyridin-5-yl)pyridin-3-yl)-3-methylbutanamide] | > 10 µM | 24% | 37.6% | 4.1% | 18.9% | 18.8% |
| > 10 µM | > 10 µM | 1.34 µM | 100 nM | c1cncc(-c2cc3c(-c4cc5c(-c6cccnc6)cncc5[nH]4)n[nH]c3cn2)c1 [Compound 88, 5-(Pyridin-3-yl)-3-(4-(pyridin-3-yl)-1H-pyrrolo[2,3-c]pyridin-2-yl)-1H-pyrazolo[3,4-c]pyridine] | > 10 µM | 76% | 82.9% | 37.4% | 36.6% |  |
| > 10 µM | > 10 µM | > 10 µM | 10 nM | Nc1cncc(-c2cc3c(-c4cc5c(-c6ccncc6)cncc5[nH]4)n[nH]c3cn2)c1 [Compound 115, 5-(3-(4-(Pyridin-4-yl)-1H-pyrrolo[2,3-c]pyridin-2-yl)-1H-pyrazolo[3,4-c]pyridin-5-yl)pyridin-3-amine] | 3.74 µM | 52% |  | 22% | 4.3% | 14.2% |
| 6.31 µM | > 10 µM | > 10 µM | 2700 nM | CN(C)Cc1cncc(-c2cc3c(-c4cc5c(-c6ccccc6F)cncc5[nH]4)n[nH]c3cn2)c1 [Compound 69, 1-(5-(3-(4-(2-Fluorophenyl)-1H-pyrrolo[2,3-c]pyridin-2-yl)-1H-pyrazolo[3,4-c]pyridin-5-yl)pyridin-3-yl)-N,N-dimethylmethanamine] | 9.72 µM | 54% |  |  | 24.7% | 49.2% |
| > 10 µM | > 10 µM | > 10 µM |  | CS(=O)(=O)NCc1cc(F)cc(-c2cncc3[nH]c(-c4n[nH]c5cnc(-c6cncc(CN7CCCC7)c6)cc45)cc23)c1 [Compound 490, N-(3-Fluoro-5-(2-(5-(5-(pyrrolidin-1-ylmethyl)pyridin-3-yl)-1H-pyrazolo[3,4-c]pyridin-3-yl)-1H-pyrrolo[2,3-c]pyridin-4-yl)benzyl)methanesulfonamide] | > 10 µM | 8% | 21.4% | 17.4% | 0% | 8.5% |
